From patent US8796282B2, “Method of treating dermatological disorders” (Case Western Reserve University, priority 2007, dated 2014)

Columns and labels:
PEX3 gene expression = PEX3 gene expression in cultured outer root sheath (ORS) keratinocytes treated with PPAR agonists, real-time PCR; format: cell-based, human; conditions: for effect on PEX3 gene expression: cultured outer root sheath keratinocytes
Protocol: (§1) HaCaT keratinocytes were treated with vehicle alone (0.1% DMSO) or with specific agonists (1 μM and 5 μM in 0.1% DMSO) of PPARγ-Ciglitazone (Cig), Rosiglitazone (Rosi), Pioglitazone (Pio) and Troglitazone (Tro), PPARα-WY-14363 and PPARδ-GW50516. After 48 hours, PEX16 gene expression was measured by real-time PCR.
(§2) We directly assessed the role of PPARγ in modulating peroxisomal gene expression by growing HaCat cells (human keratinocyte cell line) in the presence of PPAR agonists (1 μM and 5 μM concentrations in 0.1% DMSO) and monitoring gene expression by real-time PCR (FIG. 5b). The agonists tested were Ciglitazone (Cig), Rosiglitazone (Rosi), Pioglitazone (Pio) and Troglitazone (Tro) specific for PPARγ, WY-14363 specific for PPARα and GW50516 specific for PPARδ. […] We also examined whether expression of the PEX3 gene is modulated by the PPAR agonist Pioglitazone (Pio) in cultured outer root sheath keratinocytes. Cells were grown in the presence or absence of Pio and PEX3 gene expression was monitored by real-time PCR.
(§3) Quantitative real-time RT-PCR. FAM labeled PCR primers and TaqMan hydrolysis probes for all target genes and 18S rRNA were purchased from Perkin-Elmer Applied Biosystems (Foster City, Calif.). Real-time PCR was performed on an ABI Prism 7700 Sequence Detection System (PE Biosystems) according to the recommendation of the manufacturer. The target gene expression in LPP and control samples was quantitated by the comparative CT method as described in the ABI Prism 7700 Sequence Detection System manual (PE Biosystems).
Effect of PPARg agonists and antagonists on PEXgenes. Human Hair Follicle Outer Root Sheath Cells (ORS cells) were obtained from ScienCell™ (San Diego, Calif.) and grown in Mesenchymal Stem Cell Medium (MSCM) consisting of 500 ml of basal medium, 25 ml of fetal bovine serum, 5 ml of mesenchymal stem cell growth supplement and 5 ml of penicillin/streptomycin solution. HaCaT cells were cultured in Dulbecco's modified Eagle's medium containing 10% fetal bovine serum under 5% CO2 at 37° C. […]

PEX16 gene expression = PEX16 gene expression in HaCaT keratinocytes treated with PPAR agonists, real-time PCR; format: cell-based, human; conditions: HaCaT cells, 1 μM and 5 μM in 0.1% DMSO, 48 hours
Protocol: as §1, §2
Quantitative real-time RT-PCR. […] The target gene expression in LPP and control samples was quantitated by the comparative CT method as described in the ABI Prism 7700 Sequence Detection System manual (PE Biosystems). […]

[1] = test system: PEX genes (PEX3, PEX16, PMP22); test: PEX (peroxisomal) gene expression in a human keratocyte cell line / cultured human keratinocytes exposed to PPARγ agonists; format: cell-based; conditions: for expression of peroxisomal genes (PEX3, PEX16, PMP22): qualitative statement, cultured human keratinocytes
Protocol: as §3
Effect of PPARg agonists and antagonists on PEXgenes. Human Hair Follicle Outer Root Sheath Cells (ORS cells) were obtained from ScienCell™ (San Diego, Calif.) and grown in Mesenchymal Stem Cell Medium (MSCM) consisting of 500 ml of basal medium, 25 ml of fetal bovine serum, 5 ml of mesenchymal stem cell growth supplement and 5 ml of penicillin/streptomycin solution. HaCaT cells were cultured in Dulbecco's modified Eagle's medium containing 10% fetal bovine serum under 5% CO2 at 37° C. The different PPAR agonists were added in triplicate in dimethylsulfoxide (<0.1% by volume) for 48 hours to evaluate their effects on PEX gene expression by real-time PCR.

Patients with LLP = test: Treatment of patients with lichen planopilaris with low dose Actos; format: in vivo, human; conditions: for inflammatory cells in scalp biopsy histology: one patient, H&E
Protocol: Patients were treated with Actos (Pioglitazone), a PPARγ agonist that is currently used to treat diabetes. Patients with LLP were given a low dose of Actos, i.e., less than about 15 mg/daily. […] The histology of scalp biopsy of one of the patients before, after one year of treatment, and after two years of treatment are shown in FIGS. 18-20. […] Therefore, PPAR agonist is effective in reducing symptoms.

Row | SMILES | effect on PEX3 gene expression (PEX3 gene expression) | effect on PEX 16 gene expression (PEX16 gene expression) | expression of peroxisomal genes (PEX3, PEX16, PMP22) [1] | other results
1 | Cc1cccc(Nc2cc(Cl)nc(SCC(=O)O)n2)c1C [WY-14363] | minimal effect | minimal effect | – | –
2 | Cc1cc(SCc2sc(-c3ccc(C(F)(F)F)cc3)nc2C)ccc1OCC(=O)O [GW50516] | minimal effect | minimal effect | – | –
3 | CN(CCOc1ccc(CC2SC(=O)NC2=O)cc1)c1ccccn1 (stereo not shown) [Rosiglitazone, 5-[4-[2-(N-methyl-N-(2-pyridyl)amino]ethoxy]benzyl]thiazolidine-2,4-dione] | – | – | induces the expression | increase in PEX gene expression ([1]; human keratocyte cell line): three-fold increase
4 | Cc1c(C)c2c(c(C)c1O)CCC(C)(COc1ccc(CC3SC(=O)NC3=O)cc1)O2 (single isomer, unassigned; (+)) [Troglitazone, (+)-5[[4-[(3,4-dihydro-6-hydroxy-2,5,7,8-tetramethyl-2H-1-benzopyran-2-yl)methoxy]phenyl]methyl]-2,4-thiazolidinedione] | – | – | induce the expression | –
5 | CCc1ccc(CCOc2ccc(CC3SC(=O)NC3=O)cc2)nc1 (stereo not shown) [Pioglitazone, 5-[4-[2-(5-ethylpyridin-2-yl)ethoxyl]benzyl]thiazolidine-2,4-dione] | – | – | induce the expression | increase in PEX3 gene expression (PEX3 gene expression; outer root sheath keratinocytes, 1 μM, compared to vehicle alone (0.1% DMSO)): 4 fold; itching, burning and pain associated with lichen planopilaries (Patients with LLP; LLP patients, less than about 15 mg/daily, patient-reported): significant decrease; inflammatory cells in scalp biopsy histology (Patients with LLP; after 1 year of treatment): Reduction is already seen; inflammatory cells in scalp biopsy histology (Patients with LLP; at two years of treatment): complete clearing of inflammatory cells
6 | CC1(COc2ccc(CC3SC(=O)NC3=O)cc2)CCCCC1 (stereo not shown) [Ciglitazone, 5-[4-[(1-methylcyclohexyl)methoxy]benzyl]thiazolidine-2,4-dione] | – | – | induce the expression | –
